Results on 1 compound are retold here after article PMC10583239 (CPT: Pharmacometrics & Systems Pharmacology, 2023).

The target in data set [1] is T1, CYP2C19 (Homo sapiens, UniProt P33261). Description: biochemical.
The target in data set [2] is CYP2C9 (Homo sapiens, UniProt P11712). Description: Metabolic stability in recombinant human CYP2C9 with NADPH. The format is in vitro ADME. Particulars: CYP2C9 share of CYP metabolism, scaled by abundance and ISEF.
For data set [3] the following is noted: phase I FIH study ref 7; cited from earlier work.
Data set [4] has as its target T1, CYP2C19. Description: Metabolic stability in recombinant human CYP2C19 with NADPH. Particulars: CYP2C19 share of CYP metabolism, scaled by abundance and ISEF. In kind it is in vitro ADME.
In data set [5] the target is T2, recombinant human CYP2A6 (Homo sapiens, UniProt P11509).
T2 sequence (P11509 1-494): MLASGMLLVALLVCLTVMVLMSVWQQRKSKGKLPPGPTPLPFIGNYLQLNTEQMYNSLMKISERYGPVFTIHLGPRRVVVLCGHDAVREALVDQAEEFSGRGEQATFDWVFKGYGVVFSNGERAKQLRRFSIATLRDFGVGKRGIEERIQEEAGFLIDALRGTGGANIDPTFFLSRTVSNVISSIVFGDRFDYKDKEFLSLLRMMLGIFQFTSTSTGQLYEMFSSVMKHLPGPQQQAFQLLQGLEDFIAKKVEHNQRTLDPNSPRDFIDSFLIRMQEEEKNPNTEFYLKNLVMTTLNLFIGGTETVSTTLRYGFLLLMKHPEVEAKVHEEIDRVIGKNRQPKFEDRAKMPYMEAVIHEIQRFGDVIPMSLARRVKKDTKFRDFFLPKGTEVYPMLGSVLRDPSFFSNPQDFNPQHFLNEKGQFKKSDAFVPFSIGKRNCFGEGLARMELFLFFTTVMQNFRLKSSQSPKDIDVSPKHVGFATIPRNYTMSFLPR
Description: Metabolic stability in recombinant human CYP2A6 with NADPH. The format is in vitro ADME. Conditions: CYP2A6 share of CYP metabolism, scaled by abundance and ISEF.

Data set [6] concerns the target CYP2D6 (Homo sapiens, UniProt P10635). Description: CYP2D6 inhibition in human liver microsomes. The format is in vitro ADME. On the technique in general: Liver microsomes are a subcellular fraction often used to study metabolism.
The target in data set [7] is T3, CYP2C8 (Homo sapiens, UniProt P10632).
T3 sequence (P10632 1-490): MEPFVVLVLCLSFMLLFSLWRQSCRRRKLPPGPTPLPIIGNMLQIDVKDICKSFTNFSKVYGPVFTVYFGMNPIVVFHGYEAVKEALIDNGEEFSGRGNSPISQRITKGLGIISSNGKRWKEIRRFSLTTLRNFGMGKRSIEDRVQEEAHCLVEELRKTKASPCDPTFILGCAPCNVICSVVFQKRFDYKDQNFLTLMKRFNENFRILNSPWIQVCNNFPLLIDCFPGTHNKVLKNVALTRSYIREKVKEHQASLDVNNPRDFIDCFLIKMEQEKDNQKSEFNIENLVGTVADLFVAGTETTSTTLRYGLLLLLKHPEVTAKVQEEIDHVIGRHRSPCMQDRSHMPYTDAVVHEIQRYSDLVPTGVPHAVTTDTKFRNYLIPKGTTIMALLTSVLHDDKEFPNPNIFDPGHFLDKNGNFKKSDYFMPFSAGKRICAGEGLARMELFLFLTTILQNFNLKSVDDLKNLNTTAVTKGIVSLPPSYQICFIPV
Description: Metabolic stability in recombinant human CYP2C8 with NADPH. In kind it is in vitro ADME. Particulars: CYP2C8 share of CYP metabolism, scaled by abundance and ISEF.

The target of data set [8] is T3, CYP2C8. Description: CYP2C8 inhibition in human liver microsomes. The format is in vitro ADME.
A short description of data set [9]: Aqueous phase solubility. The format is physicochemical. Conditions: pH 6.71, aqueous buffer.

Structures are written as SMILES. Values after ≈ are worked out from the molar mass of the structure shown.

CYP2D6, sequence (P10635 whole entry): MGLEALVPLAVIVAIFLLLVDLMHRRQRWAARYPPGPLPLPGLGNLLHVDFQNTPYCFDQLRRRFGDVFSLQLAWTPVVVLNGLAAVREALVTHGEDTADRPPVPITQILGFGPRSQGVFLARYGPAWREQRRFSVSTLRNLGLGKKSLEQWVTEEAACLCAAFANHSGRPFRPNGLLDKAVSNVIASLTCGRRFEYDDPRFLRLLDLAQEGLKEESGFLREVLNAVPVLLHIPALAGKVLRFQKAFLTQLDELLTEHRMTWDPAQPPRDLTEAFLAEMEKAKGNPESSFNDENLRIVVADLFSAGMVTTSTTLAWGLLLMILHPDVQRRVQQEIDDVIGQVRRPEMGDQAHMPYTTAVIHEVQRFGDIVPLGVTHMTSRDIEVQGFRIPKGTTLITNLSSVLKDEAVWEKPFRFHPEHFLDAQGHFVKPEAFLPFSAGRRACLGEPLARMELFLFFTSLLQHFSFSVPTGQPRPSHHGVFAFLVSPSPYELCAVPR
T1 sequence (P33261 whole entry): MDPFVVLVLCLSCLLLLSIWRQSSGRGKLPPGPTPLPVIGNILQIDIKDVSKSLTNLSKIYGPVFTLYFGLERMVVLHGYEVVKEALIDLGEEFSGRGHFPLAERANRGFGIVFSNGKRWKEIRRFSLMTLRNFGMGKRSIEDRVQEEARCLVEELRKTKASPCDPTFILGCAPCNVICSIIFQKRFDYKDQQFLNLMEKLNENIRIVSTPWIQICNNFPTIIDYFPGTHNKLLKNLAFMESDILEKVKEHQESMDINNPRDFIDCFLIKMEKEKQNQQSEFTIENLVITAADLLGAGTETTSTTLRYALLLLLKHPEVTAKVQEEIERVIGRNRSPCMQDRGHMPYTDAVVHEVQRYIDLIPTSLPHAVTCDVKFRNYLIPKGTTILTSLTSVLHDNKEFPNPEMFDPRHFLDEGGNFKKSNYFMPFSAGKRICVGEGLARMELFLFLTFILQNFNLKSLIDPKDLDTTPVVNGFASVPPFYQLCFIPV
CYP2C9, sequence (P11712 whole entry): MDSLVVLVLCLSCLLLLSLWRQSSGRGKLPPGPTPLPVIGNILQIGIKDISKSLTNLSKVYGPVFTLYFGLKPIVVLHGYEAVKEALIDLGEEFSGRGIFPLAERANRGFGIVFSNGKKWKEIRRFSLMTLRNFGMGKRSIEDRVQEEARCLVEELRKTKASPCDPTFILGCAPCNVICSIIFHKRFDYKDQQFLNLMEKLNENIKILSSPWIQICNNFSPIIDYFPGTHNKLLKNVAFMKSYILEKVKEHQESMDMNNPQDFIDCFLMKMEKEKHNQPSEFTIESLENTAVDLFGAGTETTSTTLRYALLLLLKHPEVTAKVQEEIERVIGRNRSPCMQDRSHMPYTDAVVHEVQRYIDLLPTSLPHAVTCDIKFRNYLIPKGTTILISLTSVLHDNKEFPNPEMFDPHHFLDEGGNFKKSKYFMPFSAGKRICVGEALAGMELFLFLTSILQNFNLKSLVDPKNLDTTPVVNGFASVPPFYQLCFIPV

In general, Ki refers to the equilibrium dissociation constant of an inhibitor or competing ligand from its target. The low end stands for higher affinity, the high end for lower affinity. In general, solubility refers to the concentration that dissolves in the medium under given conditions. As for `N#C[C@H](C[C@@H]1CCCNC1=O)NC(=O)[C@H](CC1CC1)NC(=O)c1cc2cccc(Cl)c2[nH]1` [Pomotrelvir, pomotrelvir], the inhibitory constant (Ki) was determined as 27.3 µM in [1], 25.4 µM in data set [6] and 1.93 µM in [8]. Further, the “Relative Contribution (fm)” value in data set [2] is “negligible”; in [4], “negligible”; in data set [5], “negligible”; in data set [7] it was 11%. Besides, in data set [3], the oral bioavailability entry is “good”. The tolerability result in data set [3] is reported as “well tolerated”. Also, the “inhibitory effect on CYP2D6 in vitro (in words)” value in data set [6] (main text summary) was “No inhibitory effect”. In addition, the “inhibitory effect on CYP2C8 in vitro (in words)” value in data set [8] (main text summary) is reported as “weak to moderate inhibition”. The compound further registered a solubility in [9] of 10 µg/mL (≈ 21.9 µM).
